Assay results as given in EP0533084A1, “Pharmaceutical compositions comprising natriuretic peptides or neutral endopeptidase inhibitors for treating and preventing myointimal proliferation” (SCHERING CORPORATION, priority 1991, dated 1993).

Tested on: carotid artery intimal proliferation
Assay: balloon catheter injury of the left carotid artery in spontaneously hypertensive rats; morphometric and DNA analyses of intimal proliferation 14 days post-injury
Format: in vivo, male spontaneously hypertensive rats
Details: SHR, means ± SEM
Method: Briefly, rats were anesthetized with Metofane (methoxyflurane) and a 2 Fr Fogarty embolectomy catheter was inserted into the left external carotid artery. The catheter was advanced 5 cm, inflated and retracted 3 times, turning the catheter 90^o each time. […] Animals were autopsied following exsanguination with ketamine (40 mg/kg) plus xylazine (10 mg/kg) i.m. anesthesia at specified timepoints following balloon injury.
Standard samples of the control right and balloon injured left carotid arteries were taken for DNA and morphometric analyses. […] The DNA results were expressed as the ratio of the left or ballooned carotid to the right control carotid. Three samples were taken for histology at 2.5 mm intervals cephalad from the DNA sample from each carotid artery and fixed in 4% paraformaldehyde containing 10% sucrose (wt/vol). Paraffin-embedded sections were stained with the Gomori trichrome-aldehyde fuchsin stain and computer-assisted morphometric analyses were performed using a Bioquant System IV image analyzer (R&M Biometrics Inc.). Morphometric measurements included: maximal intimal thickness (mm), intimal cross sectional area (mm²), and intimal cross sectional area/medial cross sectional area. […]

[1] = Exp. 5A, 10 mpk once a day, control see Exp. 1A

Q: For `CCOC(=O)[C@H](CCc1ccccc1)N[C@@H](C)C(=O)N1CC2(C[C@H]1C(=O)O)SCCS2` [compound D, spirapril, reference compound], which “Carotid DNA (ballooned/ control)” value [1] is on record?
A: 1.94 ±0.32

Q: What about the “Intimal Area” value [1] of the same compound?
A: 0.064 ±0.005 mm^2

Q: What about the “Intimal Area/ Medial Area” value [1] of the same compound?
A: 0.500 ±0.049

Q: What about the “Maximal Intimal Thickness” value [1] of the same compound?
A: 0.082 ±0.010 mm

Q: With `CCOC(=O)[C@H](CCSC)NC(=O)C(CSC(C)=O)Cc1ccccc1C` (stereo partly drawn) [compound B, N-[2-acetylthiomethyl-3-(2-methylphenyl)-propionyl]-methionine ethyl ester] as the compound, how does the “Carotid DNA (ballooned/ control)” value (Exp. 2, 30 mpk b.i.d.) read?
A: 3.47 ±0.40

Q: And the “Intimal Area” value (Exp. 2, 30 mpk b.i.d.)?
A: 0.071 ±0.010 mm^2

Q: What about the “Intimal Area/ Medial Area” value (Exp. 2, 30 mpk b.i.d.) of the same compound?
A: 0.441 ±0.052

Q: And the “Maximal Intimal Thickness” value (Exp. 2, 30 mpk b.i.d.)?
A: 0.085 ±0.009 mm

Q: What about the “Carotid DNA (ballooned/ control)” value (Exp. 2A, 10 mpk b.i.d.) of the same compound?
A: 3.12 ±0.22

Q: What about the “Intimal Area” value (Exp. 2A, 10 mpk b.i.d.) of the same compound?
A: 0.106 ±0.010 mm^2

Q: And the “Intimal Area/ Medial Area” value (Exp. 2A, 10 mpk b.i.d.)?
A: 0.719 ±0.062

Q: And the “Maximal Intimal Thickness” value (Exp. 2A, 10 mpk b.i.d.)?
A: 0.112 ±0.012 mm

Q: What about the “Carotid DNA (ballooned/ control)” value (Exp. 4, 10 mpk b.i.d.) of the same compound?
A: 4.38 ±0.73

Q: And the “Intimal Area” value (Exp. 4, 10 mpk b.i.d.)?
A: 0.085 ±0.009 mm^2

Q: What about the “Intimal Area/ Medial Area” value (Exp. 4, 10 mpk b.i.d.) of the same compound?
A: 0.592 ±0.067

Q: And the “Maximal Intimal Thickness” value (Exp. 4, 10 mpk b.i.d.)?
A: 0.095 ±0.012 mm

Q: Which results are given for `CC1(C)OCC(COC(=O)[C@H](Cc2ccccc2)N[C@@H](Cc2ccccc2)C(=O)NCCC(=O)O)O1` (stereo partly drawn) [compound A, N-[N-[(L)-[1-[(2,2-dimethyl-1,3-dioxolan-4-yl)methoxy]carbonyl]-2-phenylethyl]-L-phenylalanyl]-ß-alanine]?
A: Carotid DNA (ballooned/ control) (Exp. 1, 90 mpk b.i.d.): 3.16 ±0.35; Intimal Area (Exp. 1, 90 mpk b.i.d.): 0.99 ±0.010 mm^2; Intimal Area/ Medial Area (Exp. 1, 90 mpk b.i.d.): 0.653 ±0.067; Maximal Intimal Thickness (Exp. 1, 90 mpk b.i.d.): 0.104 ±0.011 mm; Carotid DNA (ballooned/ control) (Exp. 1A, 90 mpk b.i.d.): 4.60 ±0.67; Intimal Area (Exp. 1A, 90 mpk b.i.d.): 0.099 ±0.010 mm^2; Intimal Area/ Medial Area (Exp. 1A, 90 mpk b.i.d.): 0.692 ±0.066; Maximal Intimal Thickness (Exp. 1A, 90 mpk b.i.d.): 0.110 ±0.010 mm
